Tested on: deferoxamine-gallium (III) cation capture agent
Assay: AlphaScreen proximity assay: binding of biotinylated target molecules to deferoxamine-gallium (III) cation acceptor beads
Experimental: To prepare desferrioxamine complexed with gallium (III) cation and desferrioxamine complexed with iron (III), as a capture agents attached to a plastic bead support, desferrioxamine was first attached to plastic beads as follows: 5 mg of deferoxamine, 250 ul of raw AlphaScreen™ acceptor beads (at 20 mg/ml), 6 ul of TWEEN™ 20 detergent (at 10% in water), 50 ul of sodium cyanoborohydride (at 25 mg/ml in water) and 695 ul of MES 0.1 M, pH 6.0 were mixed. The mixture was incubated overnight at 37° C. in an agitating water bath. The following morning, 50 ul of carboxymethoxylamine (at 65 mg/ml in water, pH 5) was added, and the mixture was incubated for 1 hour at 37° C. The beads were then centrifuged (30 minutes at 13,000 rpm), washed twice with TRIS buffer (0.1 M, pH 8.0).
To form a complex of desferrioxamine with transition metal cations, the beads were resuspended in HEPES buffer (25 mM, pH 7.4) containing 100 mM gallium (III) or iron (III) chloride. After 1 hour of incubation, the beads were centrifuged, washed twice with HEPES buffer (25 mM pH 7.4) and resuspended in HEPES buffer. Sonication optionally can be used to eliminate aggregates of beads. […]
The ability of deferoxamine-gallium (III) cation capture agents to bind to target molecules was confirmed using AlphaScreen™ assays. […] Alternatively, competition or cleavage assays can be read as signal reduction. […]

biotin-phosphoinositide-3,4,5-trisphosphate [biotin-PIP3]
concentration at which maximal signal was not yet reached: > 1 µM
concentration at which detection starts (HEPES buffer, streptavidin donor beads, triplicate): around 300 pM

— patent publication US8859291B2, “Methods for target molecule detection using siderophores and related compositions” (PerkinElmer LAS, Inc., priority 2004, dated 2014)
